One data set concerns NMDA-induced injury. As to conditions: for percent protection against NMDA-induced injury: 15 minutes and 2.25 hours after NMDA. As to the method:
Intrastriatal injections of NMDA (15 nmol/0.5 μL) were performed in male and female Sprague-Dawley rat pups (Charles River Laboratory, Portage, Mich.) on Postnatal Day (PND) 7. The animals were anesthetized with ether, and the calvarium was exposed by a midline incision through the skin. The rat pups were placed in a plaster of paris mold that was secured to a small animal stereotaxic instrument (Kopf Instruments). NMDA (Sigma) was dissolved in 0.1 M phosphate-buffered saline (PBS) adjusted to pH 7.4 with 1 N NaOH. Injections of NMDA ([…]) were placed in the middle of the right posterior corpus striatum (coordinates relative to Bregma; AP -2.0 mm, ML 2.5 mm, at a depth of 4.0 mm from the dura) with a 26-gauge Hamilton syringe. The syringe was left in place for 2 minutes following the injections to limit leakage. Temperature of the animals was kept constant after surgery in a thermostatically controlled environment (HovaBator chick incubator; BFG Corp., Savannah, Ga.) set at 35° C. to 36° C. for 1 hour after the last drug or vehicle injection. Drug solutions were prepared in PBS and injected intraperitoneally (0.05 mL volume) 15 minutes, and 2.25 hours after intrastriatal injection of NMDA. Control animals received equal volumes of PBS.
After surgery, all animals were returned to the mothers for 5 days, and decapitated on PND 12. The brains were removed, the cerebral hemispheres were separated, and wet weights of each hemisphere were determined individually. Differences of the hemispheric weights were compared for each animal using the formula: 100×(C-I/C)=percent damage, a value that indicates the severity of damage of the injected (I) cerebral hemisphere relative to that of the uninjected contralateral (C) hemisphere. Percent protection is used to indicate the relative protection of the neuroprotective compound compared to the control and was calculated as: 100×[1-(% damagetreated /% damagecontrol)]. Data were expressed as mean percent damage±S.E.M. in all groups. Independent t-tests were used for statistical comparisons.

Data set [1] concerns inducible nitric oxide synthase (iNOS), BV-2 microglia. Briefly: Nitric oxide production in LPS-activated BV-2 microglia (Griess reaction). In kind it is cell-based. The conditions noted are these: Mus musculus, LPS 4 μg/mL, 16 hours, read-out: IC50, inhibition of nitric oxide production. As to the method:
(§1) BV-2 microglia were grown in 6-well tissue culture plates in DMEM/F12 media supplemented with 10% fetal calf serum. Prior to activation, cells were given fresh media containing various amounts of thiazolidinone. One hour after drug treatment, microglia were activated with lipopolysaccharide (LPS, 4 μg/mL) and placed in an incubator at 37° C. in an atmosphere containing 5% CO2. After 16 hours, cultures were evaluated for inducible nitric oxide synthase (iNOS) activity and expression. iNOS activity was determined using the Griess reaction. Cell-free culture media was mixed with an equal volume of Griess reagent (one volume of 1.0% sulfanilamide in 5% phosphoric acid mixed with one volume of 0.1% naphthylenediamine dihydrochloride in water) and incubated for 5 minutes at room temperature. Absorbance was measured at 560 nm and the concentration within a sample was determined using sodium nitrite as standard. iNOS expression was evaluated by extracting cellular protein and performing Western blot analysis using a monoclonal antibody specific for iNOS.
On the technique in general: The Griess reaction detects nitrite, a stable product of nitric oxide.

In data set [2] the test system is nitric oxide synthase, mixed cortical cultures. Briefly: Nitric oxide synthase activity / NO production in mixed cortical cultures. In kind it is cell-based, fetal Sprague-Dawley rat. As to the method: as §1
Experiments using mixed cortical cultures were performed as described above. […]
Cerebral ischemia can be modeled in vitro by lowering oxygen and glucose in the media of cortical neurons. […] Cultures were read every 2 to 3 days thereafter by half volume (100 μL) replacement with DME/F12 (10% horse serum).

In another data set the test system is cortical neurons. Briefly: Hypoxia/hypoglycemia-induced death of cortical neurons (LDH). In kind it is cell-based, fetal Sprague-Dawley rat. An excerpt: Cerebral ischemia can be modeled in vitro by lowering oxygen and glucose in the media of cortical neurons. For this study, cortical neurons were isolated from fetal Sprague-Dawley rat brains on Day E18. Cortical hemispheres were sectioned, dissociated, and triturated in Hank's Balanced Salt Solution (HBSS) containing 0.1% trypsin. Cell concentration was adjusted to 620,000 cells/mL by the addition of Dulbecoo's Modified Eagles Medium (DME) and Ham's Nutrient mixture F-12 (F12) 1:1 supplemented with heat-inactivated 10% horse serum and 6% fetal calf serum. A 100 μL aliquot of cell suspension was pipetted into each individual well of a 96-well polyethylenimine-coated culture plate. After 4 days in an incubator at 37° C. in an atmosphere of 8% CO2,100 μL medium was drawn off from each well and replaced with 100 μL of DME/F12 with 10% horse serum to which 30 μg/mL 5-fluoro-2-deoxyuridine and 70 μg/mL uridine were added to prevent further division of the glial cells. Cultures were read every 2 to 3 days thereafter by half volume (100 μL) replacement with DME/F12 (10% horse serum).
Cells were exposed to an hypoxic/hypoglycemic environment (91% N2 /[…] /1% O2, 1 mM glucose, 37° C.) for varying times in 50 μL HBSS. Cultures were then returned to the normoxic incubator (21% O2 /8% CO2,25 mM glucose) and quantitative assessment of cell death made 24 hours later by measurement of the intracellular enzyme lactate dehydrogenase (LDH). Cells were exposed for 1 hour to the thiazolidinone or other drugs prior to the induction of hypoxia/hypoglycemia.

The subject of a further data set is IL-1β. Briefly: Production of cytokine IL-1β. In kind it is cell-based.
In a further data set the test system is ICAM-1. Briefly: Cell-surface expression of ICAM-1. In kind it is cell-based.
The subject of another data set is E-selectin. The data set can be described thus: Cell-surface expression of E-selectin. In kind it is cell-based.
Data set [3] in a line: Systemic exposure in rats. As to conditions: rat, in vivo, 10 mg/kg. As to the method:
(§2) As noted above, the thiazolidinone is additionally well-suited to treating elderly patients because of its long duration of action and its substantial lack of undesirable side effects. Toxicologic properties of the thiazolidinone were evaluated in single-dose oral and intravenous (IV) studies in mice and rats and multidose oral studies in rats and dogs. The thiazolidinone was tested in dogs and monkeys in escalating-dose oral toxicity to determine the most sensitive nonrodent species. […] The initial 13-week dog study was repeated to evaluate the reproducibility of the perivascular effects. Dose range-finding studies were performed in pregnant rats and rabbits, and genotoxic potential was assessed in vitro and in vivo. […] Based on exposure at the no-effect dose in definitive studies, the rat appears to be the most sensitive species followed by the dog and the monkey, albeit with minor differences in exposure between the species.

Data set [4] is described as follows: Toxicology studies in rats. In kind it is in vivo, rat. As to the method: as §2
A short description of data set [5]: General pharmacokinetic and tolerability properties.
Setting [6] is: rats, definitive 13-week studies.

This is an account of results in patent US5912259A, “Method for treating and preventing neurodegenerative disorders by administering a thiazolidinone” (Warner-Lambert Company, priority 1998, dated 1999).

In general, IC50 refers to the concentration that inhibits the measured activity by half. One may read the Cmax as the peak of the concentration-time curve. Usually AUC(0-t) stands for exposure summed from dosing to a finite time, without extrapolation to infinity. A low value points to low exposure.

Molecules are shown by their SMILES. Where two headings read alike, the source gives them in different places.

Regarding `CC(C)(C)c1cc(/C=C2\SC(N)=NC2=O)cc(C(C)(C)C)c1O` [CI-1004, (Z)-5-[[3,5-bis(1,1-dimethylethyl)-4-hydroxyphenyl]methylene]-2-imino-4-thiazolidinone methanesulfonate], the “percent protection against NMDA-induced injury” value in the data set on NMDA-induced injury (2×10 mg/kg i.p., p<0.04) worked out at 28.1±9.2%. For the same compound, in the data set with NMDA-induced injury (2×30 mg/kg i.p., p<0.001), the “percent protection against NMDA-induced injury” value is 49±8.2%. In addition, the “survival to PND 12” value with NMDA-induced injury (rat, in vivo, 30 mg/kg) was “One animal dosed with thiazolidinone (2×30 mg/kg) did not survive to PND 12”. In data set [1], the concentration for half-maximal inhibition (IC50) was determined as 2400 nM. In addition, the “increase in nitric oxide synthase activity on LPS activation” value in data set [2] (10 μM, LPS-activated) is listed as “prevented the increase in nitric oxide synthase activity”. In addition, the “basal NO production” value in data set [2] (non-LPS activated cultures) is “significant decrease in basal NO production”. For the same compound, in the data set on cortical neurons (1 μM), the “duration of hypoxia/hypoglycemia before loss of viability” value is reported as “no effect”. In the data set on cortical neurons (10 μM), the “duration of hypoxia/hypoglycemia before loss of viability” value is given as “significantly increased the duration of hypoxia/hypoglycemia before the cells lost viability”. Further, the “neuronal death after hypoxia/hypoglycemia” value with cortical neurons (10 μM, 4 hours of exposure, control approximately 50% killed) was “no neuronal death”. Further, the “production of cytokine IL-1β” value in the data set on IL-1β was “blocks production of the cytokine IL-1β”. The “cell-surface expression of ICAM-1” value in the data set on ICAM-1 is “blocks”. Also, the “cell-surface expression of E-selectin” value in the data set with E-selectin was “blocks”. The “Cmax and AUC relative to male rats at the same dose” value in data set [3] is recorded as “approximately twice those in male rats at the same dose”. In [3] (po), this compound gave a maximum concentration (Cmax) of 970 ng/mL. This compound had an AUC(0-t) at 24 h in data set [3] (po, male rats) of 16500 ng·h/mL. Also, the renal effects result in data set [4] (female rats, 10 mg/kg) was “Renal effects were seen”. Further, in data set [4] (male rats, 10 mg/kg), the toxic effects result is listed as “No effects were observed”. Also, the hepatic enzyme induction result in data set [4] (rats) was “hepatic enzyme induction which was not associated with overt organ toxicity”. Besides, in data set [4] (setting [6]), the gastrointestinal effects result was “gastrointestinal effects” and the renal effects entry is “minor renal effects”. In data set [5], the “GI tract and kidney tolerability” value was “relatively benign to the GI tract and kidneys”; the blood-brain barrier passage result was “readily crosses the blood-brain barrier”; the half-life entry is recorded as “relatively long half-life”.
